The text below walks through data of the supplement of paper PMC10307832.

What all share (assay): relative viability (nuclei count vs DMSO), 5 days (fraction); higher = more cells survive
Compound in one assay: CC(C)=CC[C@@H](O)C1=CC(=O)c2c(O)ccc(O)c2C1=O [Shikonin]
The gist of the method: (§1)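 Lung cancer cell lines in 1536-well plates were kept overnight at 37 °C, then pinned with five library-drug doses (not always all listed) spaced by √10 on vehicle-anchored plates. After 5 days without medium change, cells were fixed, permeabilised and Hoechst-stained in one step, imaged at 4×, and nuclei were counted with MetaXpress. Viability is treated-well nuclei divided by vehicle-well nuclei, taken as the median over plates. Plates passed only with control CV below 25% and at least one doubling.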

Compound in assay [1]: CC(C)N(CCCNC(=O)Nc1ccc(C(C)(C)C)cc1)C[C@H]1O[C@@H](n2ccc3c(N)ncnc32)[C@H](O)[C@@H]1O
The gist of the method: as §1

Compound in the assay “Shikonin + Trametinib”: CC(C)=CC[C@@H](O)C1=CC(=O)c2c(O)ccc(O)c2C1=O [Shikonin] + CC(=O)Nc1cccc(-n2c(=O)n(C3CC3)c(=O)c3c(Nc4ccc(I)cc4F)n(C)c(=O)c(C)c32)c1 [Trametinib] (partner 0.02 µM)
The gist of the method:
(§2)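 Lung cancer cell lines, seeded in 1536-well plates, were treated the following day by pin tool with a single drug or with five library-drug doses (not always all listed) in √10 steps on top of a fixed anchor-drug dose. Cells were fixed and nuclei stained in one step after 5 days, and nuclei were counted. Relative viability is the nuclei count for treated wells divided by that for vehicle wells, reported as medians of duplicate plates.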

Compound in assay [2]: CC(C)N(CCCNC(=O)Nc1ccc(C(C)(C)C)cc1)C[C@H]1O[C@@H](n2ccc3c(N)ncnc32)[C@H](O)[C@@H]1O + CC1(C)CCC(c2ccc(Cl)cc2)=C(CN2CCN(c3ccc(C(=O)NS(=O)(=O)c4ccc(N[C@H](CCN5CCOCC5)CSc5ccccc5)c(S(=O)(=O)C(F)(F)F)c4)cc3)CC2)C1 [Navitoclax] (partner 0.5 µM)
The gist of the method: as §2

In the case of NCI-H441, the relative viability with Shikonin (0.01 µM) is 1.24; with Shikonin (0.1 µM), 0.942; in the assay with Shikonin (0.3162 µM), 1.18; with Shikonin (1 µM), 0.975; in assay [1] (0.08 µM) it was 1.01; in assay [1] (0.253 µM), 1.06. Moreover, the relative viability was 1.1 in assay [1] (2.53 µM); 0.981 in assay [1] (8 µM); 0.468 with Shikonin + Trametinib (first compound 0.01 µM); 0.487 in the assay with Shikonin + Trametinib (first compound 0.1 µM); 0.528 in the assay with Shikonin + Trametinib (first compound 0.3162 µM); 0.451 with Shikonin + Trametinib (first compound 1 µM). For the same cell line, the relative viability amounted to 0.66 in assay [2] (first compound 0.253 µM), 0.682 in assay [2] (first compound 0.8 µM), 0.698 in assay [2] (first compound 2.53 µM) and 0.63 in assay [2] (first compound 8 µM).
With NCI-H2170, the relative viability in the assay with Shikonin (0.01 µM) came to 1.01; in the assay with Shikonin (0.1 µM), 0.866; with Shikonin (0.3162 µM), 1.12; in the assay with Shikonin (1 µM) it was 0.99; in assay [1] (0.08 µM) it was 0.972; in assay [1] (0.253 µM), 0.937. In addition, the relative viability in assay [1] (0.8 µM) was determined as 0.924; in assay [1] (2.53 µM), 1.02; in assay [1] (8 µM) it was 0.975; in the assay with Shikonin + Trametinib (first compound 0.01 µM) it was 0.937; in the assay with Shikonin + Trametinib (first compound 0.1 µM), 0.97; in the assay with Shikonin + Trametinib (first compound 0.3162 µM), 0.959. In addition, the relative viability in the assay with Shikonin + Trametinib (first compound 1 µM) came out at 0.981; in assay [2] (first compound 0.08 µM), 0.605; in assay [2] (first compound 0.253 µM), 0.637; in assay [2] (first compound 0.8 µM) it was 0.594; in assay [2] (first compound 2.53 µM), 0.567; in assay [2] (first compound 8 µM) it was 0.544.
As for NCI-H1395, the relative viability worked out at 0.899 in the assay with Shikonin (0.01 µM); 0.987 in the assay with Shikonin (0.1 µM); 0.846 with Shikonin (0.3162 µM); 0.987 with Shikonin (1 µM); 0.838 in assay [1] (0.08 µM); 0.782 in assay [1] (0.253 µM). In addition, the relative viability in assay [1] (0.8 µM) worked out at 0.646; in assay [1] (2.53 µM), 0.933; in assay [1] (8 µM), 0.799; with Shikonin + Trametinib (first compound 0.01 µM), 0.994; in the assay with Shikonin + Trametinib (first compound 0.1 µM) it was 1.18; with Shikonin + Trametinib (first compound 0.3162 µM), 1.09. Besides, the relative viability with Shikonin + Trametinib (first compound 1 µM) stood at 0.923; in assay [2] (first compound 0.08 µM), 1.17; in assay [2] (first compound 0.253 µM), 1.1; in assay [2] (first compound 2.53 µM), 1.23; in assay [2] (first compound 8 µM) it was 1.53.
With PC-3 [JPC-3], the relative viability with Shikonin (0.01 µM) worked out at 1.1; with Shikonin (0.1 µM), 1.05; with Shikonin (0.3162 µM), 1.09; with Shikonin (1 µM) it was 1.07; in assay [1] (0.08 µM) it was 0.969; in assay [1] (0.253 µM), 1.06. Besides, the relative viability in assay [1] (0.8 µM) amounted to 0.883; in assay [1] (2.53 µM), 1.03; in assay [1] (8 µM) it was 0.934; with Shikonin + Trametinib (first compound 0.01 µM), 0.664; with Shikonin + Trametinib (first compound 0.1 µM), 0.688; in the assay with Shikonin + Trametinib (first compound 0.3162 µM) it was 0.669. Further, the relative viability in the assay with Shikonin + Trametinib (first compound 1 µM) is 0.616; in assay [2] (first compound 0.08 µM), 0.784; in assay [2] (first compound 0.253 µM), 0.752; in assay [2] (first compound 0.8 µM), 0.807; in assay [2] (first compound 2.53 µM) it was 0.797; in assay [2] (first compound 8 µM), 0.7.
Turning to CAL-12T, the relative viability with Shikonin (0.01 µM) was 1.03; with Shikonin (0.1 µM), 1.07; in the assay with Shikonin (0.3162 µM), 0.981; in the assay with Shikonin (1 µM) it was 0.991; in assay [1] (0.08 µM), 0.937; in assay [1] (0.253 µM), 0.906. In addition, the relative viability worked out at 0.992 in assay [1] (0.8 µM); 0.969 in assay [1] (2.53 µM); 0.938 in assay [1] (8 µM); 0.346 with Shikonin + Trametinib (first compound 0.01 µM); 0.376 in the assay with Shikonin + Trametinib (first compound 0.1 µM); 0.243 in the assay with Shikonin + Trametinib (first compound 0.3162 µM). The relative viability with Shikonin + Trametinib (first compound 1 µM) was 0.28; in assay [2] (first compound 0.08 µM) it was 1.14; in assay [2] (first compound 0.253 µM), 1.27; in assay [2] (first compound 0.8 µM) it was 1.19; in assay [2] (first compound 2.53 µM), 1.19; in assay [2] (first compound 8 µM) it was 1.19.
